Experimental findings from US20070117864A1, “Composition for preventing and treating hepatoma” (Tokyo University of Agr. & Tech. TLO Co., Ltd., priority 2003, published 2007) are described below.

Marks after values point to notes of the source that are not given here.

Series [1] can be described thus: food intake, body weight gain and liver weight in hepatoma-bearing rats. Conditions: for Body weight gain: mean ± SEM of 11 rats. Type of series: in vivo, rat. The procedure: (§1) Male Donryu rats of four weeks old were purchased from NRC Haruna, Gumma, Japan, and were preliminarily fed for 6 days in quintuple cages in a room with a controlled environment with light period of 8:00 to 20:00, room temperature of 22±1° C., and relative humidity of 60±5%. For the first 3 days, the animals were fed ad libitum with a stock pellet diet (CE-2; CLEA Japan, Tokyo), and for the next 3 days, they were fed a basal diet containing 20% milk casein (20C) (Table 1) ad libitum together with tap water in a glass container. Following the completion of this preparatory raising, the rats were divided into three groups (11 animals per group) with equal average body weights of the respective groups were equal, and 1.0×10^7 of AH109A cells suspended in PBS (−) were transplanted in the back of all the rats. From the time immediately after transplantation, in the respective experimental groups, the animals were fed the experimental diets shown in Table 2. During the experimental period, the body weight, food intake and solid tumor size (sum of length, width and height) were measured everyday. On the day that the animals were killed, animals were deprived of experimental diets at 9:00, but freely given water until they were killed 4 hours later. Blood was collected from carotid, and the liver and solid tumors were excised. The collected blood was allowed to stand for approximately 2 hours at room temperature, and then centrifuged for 10 minutes at 3000 rpm (1750×g), 4° C., to obtain serum. This blood serum was frozen and stored at −20° C. The livers and solid tumors were washed with physiological saline, blotted on filter paper, and weighed. Furthermore, feces from the 19th to 21st days after transplantation were collected, and these feces were frozen and stored at −20° C. for the measurement of the amounts of steroids excreted from the body.

The subject of series [2] is AH109A cells. Nature of the series: in vitro invasion assay of AH109A cells beneath mesothelial cell (M-cell) monolayer. In kind it is cell-based, rat. The procedure: The tumor invasion activity was measured using a partially modified version (Miura Y., Shiomi H., Sakai F., and Yagasaki K. 1997 Assay systems for screening food components that have anti-proliferative and anti-invasive activity to rat ascites hepatoma cells: In vitro and ex vivo effects of green tea extract. Cytotechnology 23: 127-132) of the in vitro invasion assay method of Akedo et al (Akedo H, Shinkai K, Mukai M, Mori Y, Tateishi R, Tanaka K, Yamamoto R, Morishita T. Interaction of rat ascites hepatoma cells with cultured mesothelial cell layers: a model for tumor invasion. Cancer Res. 1986 May; 46(5):2416-22).
Mesothelial cells (M-cells) directly prepared from rat mesenteries to culture were cultured for 7 to 10 days until a confluent monolayer was formed, and subsequently, the medium was changed to 3 ml of the respective experimental media. AH109A cells were overlayed onto the mesothelial cells at the density of 2.4×10^4 cells, and were gently agitated, and were cultured in a CO2 incubator. […] The numbers of cells and numbers of colonies of the AH109A cells that had infiltrated beneath the mesothelial cell monolayer were counted in 10 places of 2-mm square divisions selected at random for 1 dish, and the mean values of the numbers obtained by calculating these counts per square centimeter were taken as an index of the tumor invasion activity. […]

Series [3] has as its system AH109A cells. Kind of series: solid tumor growth and metastasis in hepatoma-bearing rats fed ENL-supplemented diets. The note with it: for Total number of metastasis/group / Hepatoma weight: 21 days; for Hepatoma weight: mean ± SEM of 11 rats. In kind it is in vivo, rat. The procedure: as §1, with “body. The length, width and height of the solid tumors were measured, and the sums of these values were used as an index of solid tumor size.” for “body.”

With `O=C1OCC(Cc2cccc(O)c2)C1Cc1cccc(O)c1` (stereo not drawn) [Enterolactone, enterolactone], the body weight entry in series [1] (100 ppm ENL ingestion group versus control) is “significant increase”. Moreover, the figures for the Body weight gain in series [1] (diet 10 ppm) and in series [1] (diet 100 ppm) were 158 ± 8^a g/21 days and 171 ± 4^b g/21 days, respectively. The “ENL concentration at which cell toxicity was seen in the M-cells of the invasion assay system” value in series [2] (M-cells in tumor invasion assay) was no less than 25 µM. For the same compound, in series [2] (in vitro, 24 hours on M-cell monolayer), the “effect on tumor invasion of AH109A cells” value is on record as “dose-dependent inhibitory effect”. Besides, the “solid tumor sizes (sum of length, width and height)” value in series [3] (100 ppm ENL diet, 7th, 8th and 18th to 21 days after transplantation, versus control diet) was “significant suppression”. The “metastasis over 21 days following transplantation” value in series [3] (ENL diet groups (10 and 100 ppm)) is on record as “no metastasis was observed”. Also, in series [3] (both ENL ingestion groups versus control), the solid tumor weight entry was “significant decrease”. Moreover, the “Total number of metastasis/group” value in series [3] (diet 10 ppm) and in series [3] (diet 100 ppm) was 0 each time. The Hepatoma weight in series [3] (diet 10 ppm) is reported as 3.4 ± 1^b g/rat; in series [3] (diet 100 ppm), 1.1 ± 0.2^b g/rat.
